Assay results reported in US20090176743A1 (priority 2005, published 2009).
Entries after “also recorded” stand apart in the source; their conditions may differ.

Tests used:
ICP0^− virus (n212) = assay type: cell-based, HSV-1; conditions: for effect of combined arginine and methionine deprivation on plating efficiency of ICP0- virus: three days in media containing all combinations of arginine, methionine and glutamine (FIG. 15); for effect of deprivation/refeeding on plating efficiency of ICP0- virus: 42 h in medium lacking the amino acid, normal medium 9 h, then n212 (FIG. 9)
Protocol: Like isoleucine deprivation, serum starvation is a method commonly used to synchronize cells to G1 phase of the cell cycle. We then replaced the media with normal growth medium, infected cells with wild type (KOS) or ICP0^− virus (n212), and analyzed cells for cellular DNA content at 3-h intervals (FIG. 7).
We infected the monolayers with an ICP0^− virus (n212) 9 h after the addition of normal medium (FIG. 8).
Media were replaced with normal growth medium, and after a 9-h incubation, monolayers were infected with ICP0^− (n212).
Cells were then infected with wild type or ICPO-virus to determine plating efficiency as described herein. […] In order to determine the role of isoleucine in these experiments, monolayers of cells were incubated for 42 hours in normal medium (Gln+ Ile+) or media lacking Ile, Gln, or both. Cells were then infected with wild type or ICP0^− virus to determine plating efficiency as described herein.
For these experiments, monolayers were incubated for 1-5 days in the absence of each of the 15 amino acids present in DMEM. Cells were then infected with wild type or ICPO-virus to determine plating efficiency as described herein.
Cells were then infected with wild type or ICPO-virus to determine plating efficiency as described herein.
A. Ile deprivation and serum starvation. DMEM was prepared by dissolving all components individually, except Ile and Gln, in water according to Invitrogen's formulation for DMEM (catalog #11965) with 3 substitutions: 200 mg/l calcium chloride (anhydrous) for 264.92 mg/l calcium chloride dihydrate, 48 mg/l L-cystine for 63 mg/l L-cystine dihydrochloride, and 72 mg/l L-tyrosine for 104 mg/l L-tyrosine disodium salt, dihydrate. Medium was sterilized by passage through a 0.22 μm filter. Ile and Gln were added as needed, not more than two days prior to use, at final concentrations of 0.802 or 2 mM, respectively.
Sixty-mm petri plates were seeded with 5×10^5 cells/plate and incubated 24 h at 37° C. For Ile deprivation experiments, medium was removed and monolayers were washed with warm Hanks' Balanced Salt Solution (HBSS) (37° C.) and overlaid with 4 ml warm Ile-free DMEM with 10% dialyzed FBS and 0 or 2 mM Gln. For serum starvation experiments, medium was removed and monolayers were washed with warm HBSS and overlaid with 4 ml warm serum-free DMEM with 0.802 mM Ile and 0 or 2 mM Gln. Monolayers in Ile- or serum-free media were incubated 42 h at 37° C. Media were replaced with warm DMEM containing 10% non-dialyzed FBS, 0.802 Ile, and 2 mM Gln. At 3-h intervals monolayers were infected with wild-type or ICP0-viruses to determine plating efficiency or analyzed for cellular DNA content by flow cytometry as described below.
Infections to determine plating efficiency. Vero cell monolayers in 35-, 60-, and 100-mm plates were infected with volumes of 200 μl, 400 μl, or 2 ml/plate, respectively, with 5, 10, 20, 40, or 100 PFU/plate. For all experiments except Ile deprivation and serum starvation, titers were determined on 24-h-old Vero cell monolayers that had been seeded at a concentration of 1.5×10^5 Vero cells/35-mm plate and incubated at 37° C. […] Plates were incubated at 37° C. and shaken every 15 minutes for 1 h. Two, 4, or 10 ml of DMEM containing 5% FBS and 0.5% methyl cellulose was added to 35-, 60-, and 100-mm plates, respectively, and monolayers were incubated 3-5 days at 37° C. to allow plaques to form. Medium was aspirated, cells were stained with crystal violet, and plaques were counted.

HSV-1 (KOS strain) = experiment: Heat-stress reactivation of latent HSV in mice treated with glutamine (Example 5); assay type: in vivo, mouse; conditions: intraperitoneally or orally, heat stress 43° C. water 10 minutes
Protocol: The strain of HSV and the method of propagation can be as described in Example 1.
The mice can be infected by, e.g., the topical ocular route, and the establishment of a corneal infection can be documented by slit lamp examination and ocular swabs on day 3 after infection. Only animals which are successfully infected are retained for use in these experiments. Thirty days after infection, groups of latently infected and uninfected mice are treated with the glutamine composition. […] The mice are treated one day before heat stress and the day of the heat stress.
The glutamine composition can be given intraperitoneally in some groups of mice and orally in others. This treatment can be continued on the day the animals are heat stressed by immersion into 43° C. water for 10 minutes. Twenty-four hours after the hyperthermic stress, the eyes are swabbed to culture any infectious virus, and the mice killed to collect the trigeminal ganglia. Ocular swabs are incubated in culture medium which is then transferred to Vero cell monolayers in 96 well culture plates. Units of infectious herpesvirus are recorded as units of cytopathic effect over a period of seven days. […] The units of cytopathic effect are recorded over a seven day incubation period. […]

[1] = system: wild-type virus latent in mouse trigeminal ganglia; experiment: Mouse ocular/trigeminal ganglia (TG) cell culture model of reactivation from latency; assay type: cell-based, HSV-1
Protocol: (For details on the model, see, for example, Leib et al., J. Virol. 63:759-768 (1989), Halford et al., J. Virol. 74:5957-5967. (2000), and Halford et al., J. Virol. 75:3240-3249 (2001)). For this experiment, mice were infected with the wild-type virus and 30 days later the trigeminal ganglia (TG) were removed and incubated in 3 24-well plates in medium containing acyclovir (ACV). As indicated below the x-axis of FIG. 16, on day 7 the acyclovir was removed. On day 11, 1 24-well plate was treated by: washing once with HBSS and replacing with Gln-free medium supplemented with 10% dialyzed FBS (red); washing once with HBSS and replacing with Gln-containing medium supplemented with 10% dialyzed FBS (green); or 3-hour incubation at 43° C. followed by replacement of medium with fresh medium (blue). On day 13, Gln-free and Gln-containing medium with dialyzed FBS was replaced with medium containing Gln and 10% normal FBS. On day 16, the 2 plates not previously heat shocked were incubated for 3 hours at 43° C. followed by replacement of medium with fresh medium. Starting on day 10, 10% of the volume of each well was transferred daily to 1 well of a 96-well plate previously seeded with Vero cells. After incubation at 37° C. for 7 days, monolayers of Vero cells in the 96-well plates were examined by light microscopy for cytopathic effect. […]

ICP22/47 promoter-CAT = experiment: Promoter-CAT expression in NB41A3 cells after Ile deprivation/refeeding; assay type: cell-based, HSV-1; conditions: NB41A3 mouse neuroblastoma cells
Protocol: (§1) Vero cells and NB41A3 cells (mouse neuroblastoma cells) were treated by Ile deprivation/refeeding as in the previous experiment. The expression of viral gene promoters was then analyzed. Promoter-chloramphenicol acetyltransferase (CAT) expression from plasmids was measured following transfection of Vero cells treated by Ile-deprivation/refeeding. ICP0 and ICP4 promoter-CAT expression increased 6- or 4-fold, respectively, at early times (0-6 hours post-release) then decreased through 10 hours post-release. In cells from the mouse neuroblastoma cell line, NB41A3, ICP0, ICP4, and ICP22/47 promoter-CAT expression was increased 6-, 10-, or 5-fold, respectively.

ICP4 promoter-CAT [2] = experiment: as above; assay type: cell-based, HSV-1; conditions: NB41A3 mouse neuroblastoma cells
Protocol: as §1

ICP0 promoter-CAT [3] = experiment: as above; assay type: cell-based, HSV-1; conditions: NB41A3 mouse neuroblastoma cells
Protocol: as §1

ICP4 promoter-CAT [4] = experiment: Promoter-CAT expression in Vero cells after Ile deprivation/refeeding; assay type: cell-based, HSV-1; conditions: 0-6 hours post-release
Protocol: as §1

ICP0 promoter-CAT [5] = experiment: as above; assay type: cell-based, HSV-1; conditions: 0-6 hours post-release
Protocol: as §1

ICP0^− (7134) virus = conditions: Ile-free medium 42 hours, refeeding; first 8 h post-release; cited from earlier work
wt (KOS) virus = conditions: Ile-free medium 42 hours, refeeding; all time points; cited from earlier work
HSV = conditions: presence of L-lysine; cited from earlier work

N=C(N)NCCC[C@H](N)C(=O)O [arginine]
effect of combined arginine and methionine deprivation on plating efficiency of ICP0- virus (ICP0^− virus (n212)): synergistic effect

NC(=O)CC[C@H](N)C(=O)O [glutamine]
units of infectious herpesvirus on the ocular surface vs untreated heat-stressed animals (HSV-1 (KOS strain)): statistically significantly lower units of infectious herpesvirus
reactivation of wild-type virus from latency (wells positive for cytopathic effect) ([1]; TG incubated in 0 mM Gln (FIG. 16)): reactivated more rapidly and to the same extent as heat-shocked TG
reactivation of wild-type virus from latency (wells positive for cytopathic effect) ([1]; TG incubated in the presence of 2 mM Gln (FIG. 16)): significantly reduced reactivation

CC[C@H](C)[C@H](N)C(=O)O [isoleucine]
effect of deprivation/refeeding on plating efficiency of ICP0- virus (ICP0^− virus (n212)): little or no effect
increase of ICP22/47 promoter-CAT expression (ICP22/47 promoter-CAT): 5 fold
increase of ICP4 promoter-CAT expression (ICP4 promoter-CAT [2]): 10 fold
increase of ICP0 promoter-CAT expression (ICP0 promoter-CAT [3]): 6 fold
increase of ICP4 promoter-CAT expression (ICP4 promoter-CAT [4]): 4 fold
increase of ICP0 promoter-CAT expression (ICP0 promoter-CAT [5]): 6 fold
increase in number of plaques produced by the ICP0- virus (ICP0^− (7134) virus): 6 fold
number of plaques produced by wild type virus (wt (KOS) virus): same number of plaques at all time points tested

NCCCC[C@H](N)C(=O)O [lysine, L-lysine]
effect of deprivation/refeeding on plating efficiency of ICP0- virus (ICP0^− virus (n212)): slight enhancement; also recorded: slight increase
enhancement of plating efficiency of ICP0- virus by deprivation/refeeding (ICP0^− virus (n212); separate experiment): 2-3 fold
replication efficiency of HSV in cell culture (HSV): decrease the replication efficiency

CSCC[C@H](N)C(=O)O [methionine]
effect of combined arginine and methionine deprivation on plating efficiency of ICP0- virus (ICP0^− virus (n212)): synergistic effect
